Experimental data published in US6624174B2, “2-amino-nicotinamide derivatives and their use as VEGF-receptor tyrosine kinase inhibitors” (Novartis AG, priority 2000, dated 2003).

Structure (SMILES)	melting point
COc1ccc(CNc2ncccc2C(=O)Nc2cccc(C(F)(F)F)c2)cn1.Cl.Cl	185 °C
O=C(Nc1ccc(C(F)(F)F)c(C(F)(F)F)c1)c1cccnc1NCc1ccncc1 [Example 6, 2-[(4-Pyridyl)methylamino]-N-[3,4-bis(trifluoromethyl)phenyl]-3-pyridinecarboxamide]	194 to 196 °C
O=C(Nc1cc(F)cc(C(F)(F)F)c1)c1cccnc1NCc1ccncc1 [Example 7, 2-[(4-Pyridyl)methylamino]-N-[3-fluoro-5-(trifluoromethyl)phenyl]-3-pyridinecarboxamide]	196 °C
CC(C)(C)[C@H]1CC[C@H](NC(=O)c2cccnc2NCc2ccncc2)CC1 [Example 8, 2-[(4-Pyridyl)methylamino]-N-(trans-4-tert-butyl-cyclohexyl)-3-pyridinecarboxamide]	165 to 167 °C
CCCc1ccc(NC(=O)c2cccnc2NCc2ccncc2)cc1 [Example 9, 2-[(4-Pyridyl)methylamino]-N-[4-(n-propyl)phenyl]-3-pyridinecarboxamide]	147 to 149 °C
CCCCc1ccc(NC(=O)c2cccnc2NCc2ccncc2)cc1 [Example 10, 2-[(4-Pyridyl)methylamino]-N-[4-(n-butyl)phenyl)3-pyridinecarboxamide]	107 to 108 °C
CCCCCc1ccc(NC(=O)c2cccnc2NCc2ccncc2)cc1 [Example 11, 2-[(4-Pyridyl)methylamino]-N-[4-(n-pentyl)phenyl]-3-pyridinecarboxamide]	106 to 107 °C
CC#Cc1ccc(NC(=O)c2cccnc2NCc2ccncc2)cc1 [Example 12, 2-[(4-Pyridyl)methylamino]-N-[4-(1-propynyl)phenyl]-3-pyridinecarboxamide]	216 to 221 °C
O=C(Nc1ccc2[nH]ncc2c1)c1cccnc1NCc1ccncc1 [Example 13, 2-[(4-Pyridyl)methylamino]-N-(5-indazolyl)-3-pyridinecarboxamide]	225 to 230 °C
O=C(Nc1cc2ccccc2cn1)c1cccnc1NCc1ccncc1 [Example 14, 2-[(4-Pyridyl)methylamino]-N-(3-isoquinolinyl)-3-pyridinecarboxamide]	191 to 195 °C
O=C(Nc1cccc(C(F)(F)F)c1F)c1cccnc1NCc1ccncc1 [Example 19, 2-[(4-Pyridyl)methylamino]-N-[2-fluoro-3-(trifluoromethyl)phenyl]-3-pyridinecarboxamide]	137 to 140 °C
O=C(Nc1ccc(Br)c(C(F)(F)F)c1)c1cccnc1NCc1ccncc1 [Example 20, 2-[(4-Pyridyl)methylamino]-N-[4-bromo-3-(trifluoromethyl)phenyl]-3-pyridinecarboxamide]	164 to 165 °C
Cc1c(NC(=O)c2cccnc2NCc2ccncc2)cccc1C(F)(F)F [Example 21, 2-[(4-Pyridyl)methylamino]-N-[2-methyl-3-(trifluoromethyl)phenyl]-3-pyridinecarboxamide]	146 to 147 °C
Cc1ccc(C(F)(F)F)cc1NC(=O)c1cccnc1NCc1ccncc1 [Example 22, 2-[(4-Pyridyl)methylamino]-N-[2-methyl-5-(trifluoromethyl)phenyl]-3-pyridinecarboxamide]	155 to 156 °C
CC(C)(C)[C@H]1CC[C@@H](NC(=O)c2cccnc2NCc2ccncc2)CC1 [Example 23, 2-[(4-Pyridyl)methylamino]-N-(cis-4-tert-butyl-cyclohexyl)-3-pyridinecarboxamide]	103 to 106 °C
COc1ccc(CNc2ncccc2C(=O)Nc2ccc(Br)c(C(F)(F)F)c2)cn1 [Example 24, 2-[(6-Methoxypyrid-3-yl)methylamino]-N-[4-bromo-3-(trifluoromethyl)phenyl]-3-pyridinecarboxamide]	123 to 125 °C
CC#Cc1ccc(NC(=O)c2cccnc2NCc2ccncc2)cc1C(F)(F)F [Example 31, 2-[(4-Pyridyl)methylamino]-N-[4-propynyl-3-(trifluoromethyl)phenyl]3-pyridinecarboxamide]	213 to 217 °C
CC#Cc1ccc(NC(=O)c2cccnc2NCc2ccc(=O)[nH]c2)cc1C(F)(F)F [Example 32, 2-[(Pyridin-2(1H)-on-5-yl)methyl]amino-N-[4-propynyl-3-(trifluoromethyl)phenyl]-3-pyridinecarboxamide]	211 to 218 °C
O=C(Nc1cccc(C(F)(F)F)c1)c1cccnc1NCc1cccc(O)c1 [Example 34, 2-[(3-Hydroxyphenyl)methyl]amino-N-[3-(trifluoromethyl)phenyl]-3-pyridinecarboxamide]	143 to 146 °C
O=C(Nc1cccc(C(F)(F)F)c1F)c1cccnc1NCc1ccc(=O)[nH]c1 [Example 36, 2-[(Pyridin-2(1H)-on-5-yl)methyl]amino-N-[2-fluoro-3-(trifluoromethyl)phenyl]-3-pyridinecarboxamide]	219 to 222 °C
CCCc1ccc(NC(=O)c2cccnc2NCc2ccc(=O)[nH]c2)cc1C(F)(F)F [Example 38, 2-[(Pyridin-2(1H)-on-5-yl)methyl]amino-N-[4-propyl-3-(trifluoromethyl)phenyl]-3-pyridinecarboxamide]	220 to 224 °C
CCCc1ccc(NC(=O)c2cccnc2NCc2ccncc2)cc1C(F)(F)F [Example 40, 2-[(4-Pyridyl)methyl]amino-N-[4-(n-propyl)-3-(trifluoromethyl)phenyl]-3-pyridinecarboxamide]	147 to 149 °C
